Tests used:
Test in all cases: B1 Post-emergence efficacy, glasshouse pot test
Assay type in all cases: in vivo
Conditions in all cases: post-emergence application, 1000 g/ha, evaluated after 13 days
Setaria faberi (SETFA) = tested on: Setaria faberi (SETFA)
Method: (§1) B1 Post-Emergence Efficacy Seeds of a variety of test species are sown in standard soil in pots:—Solanum nigrum (SOLNI), Amaranthus retoflexus (AMARE), Setaria faberi (SETFA), Alopecurus myosuroides (ALOMY), Echinochloa crus-galli (ECHCG), Ipomoea hederacea (IPOHE), Lolium perenne (LOLPE). After 8 days cultivation (post-emergence) under controlled conditions in a glasshouse (at 24/16° C., day/night; 14 hours light; 65% humidity), the plants are sprayed with an aqueous spray solution derived from the formulation of the technical active ingredient in acetone/water (50:50) solution containing 0.5% Tween 20 (polyoxyethelyene sorbitan monolaurate, CAS RN 9005-64-5). Compounds are applied at 1000 g/ha. The test plants are then grown in a glasshouse under controlled conditions in a glasshouse (at 24/16° C., day/night; 14 hours light; 65% humidity) and watered twice daily. After 13 days, the test is evaluated for the percentage damage caused to the plant. The biological activities are assessed on a five point scale (5=80-100%; 4=60-79%; 3=40-59%; 2=20-39%; 1=0-19%). A blank value in the table is indicative that the compound was not tested on that species.

[1] = tested on: Ipomoea hederacea (IPOHE)
Method: as §1

Solanum nigrum (SOLNI) = tested on: Solanum nigrum (SOLNI)
Method: as §1

[2] = tested on: Echinochloa crus-galli (ECHCG)
Method: as §1

Lolium perenne (LOLPE) = tested on: Lolium perenne (LOLPE)
Method: as §1

[3] = tested on: Amaranthus retoflexus (AMARE)
Method: as §1

Row | Structure (SMILES) | SETFA: percentage damage caused to the plant (five point scale) (Setaria faberi (SETFA)) | IPOHE: percentage damage caused to the plant (five point scale) [1] | SOLNI: percentage damage caused to the plant (five point scale) (Solanum nigrum (SOLNI)) | ECHCG: percentage damage caused to the plant (five point scale) [2] | LOLPE: percentage damage caused to the plant (five point scale) (Lolium perenne (LOLPE)) | AMARE: percentage damage caused to the plant (five point scale) [3]
1 | CCc1nn(C)c(=O)c(-c2c(F)ccc(Cl)c2OCc2ccccc2)c1O [Compound 1.010] | 3 (3=40-59%) | 5 (5=80-100%) | 5 (5=80-100%) | 4 (4=60-79%) | 4 (4=60-79%) | 5 (5=80-100%)
2 | Cn1nc([S+](C)[O-])c(O)c(-c2c(Cl)ccc(Cl)c2OCc2ccccc2)c1=O (stereo not drawn) [Compound 1.083] | 3 (3=40-59%) | 5 (5=80-100%) | 5 (5=80-100%) | 1 (1=0-19%) | 2 (2=20-39%) | 1 (1=0-19%)
3 | Cn1nc(C(F)(F)F)c(O)c(-c2c(F)ccc(Cl)c2OCc2ccccc2)c1=O [Compound 1.074] | 5 (5=80-100%) | 5 (5=80-100%) | 5 (5=80-100%) | 5 (5=80-100%) | 5 (5=80-100%) | 5 (5=80-100%)
4 | Cc1ccc(Cl)c(OCc2ccccc2)c1-c1c(O)c(C)nn(C)c1=O [Compound 1.076] | 5 (5=80-100%) | 5 (5=80-100%) | 5 (5=80-100%) | 5 (5=80-100%) | 4 (4=60-79%) | 2 (2=20-39%)
5 | Cc1nn(C)c(=O)c(-c2c(Cl)ccc(Cl)c2OCc2ccc(Cl)c(Cl)c2)c1O [Compound 1.005] | 5 (5=80-100%) | 5 (5=80-100%) | 5 (5=80-100%) | 5 (5=80-100%) | 5 (5=80-100%) | 5 (5=80-100%)
6 | Cc1nn(C2CC2)c(=O)c(-c2c(F)ccc(Cl)c2OCc2ccccc2)c1O [Compound 1.044] | 5 (5=80-100%) | 5 (5=80-100%) | 5 (5=80-100%) | 5 (5=80-100%) | 5 (5=80-100%) | 5 (5=80-100%)
7 | Cn1nc(C(F)(F)F)c(O)c(-c2c(C(F)(F)F)ccc(Cl)c2OCc2ccccc2)c1=O [Compound 1.071] | 5 (5=80-100%) | 5 (5=80-100%) | 5 (5=80-100%) | 4 (4=60-79%) | 3 (3=40-59%) | 3 (3=40-59%)
8 | Cc1nn(C)c(=O)c(-c2cccc(Cl)c2OCc2ccccc2)c1O [Compound 1.003] | 3 (3=40-59%) | 5 (5=80-100%) | 5 (5=80-100%) | 5 (5=80-100%) | 5 (5=80-100%) | 4 (4=60-79%)
9 | Cn1nc(S(C)(=O)=O)c(O)c(-c2c(Cl)ccc(Cl)c2OCc2ccccc2)c1=O [Compound 1.082] | 2 (2=20-39%) | 3 (3=40-59%) | 5 (5=80-100%) | 1 (1=0-19%) | 1 (1=0-19%) | 1 (1=0-19%)
10 | Cc1nn(C)c(=O)c(-c2ccccc2OCc2ccccc2)c1O [Compound 1.002] | 1 (1=0-19%) | 1 (1=0-19%) | 5 (5=80-100%) | 1 (1=0-19%) | 1 (1=0-19%) | 4 (4=60-79%)
11 | C#CCn1nc(C)c(O)c(-c2c(F)ccc(Cl)c2OCc2ccccc2)c1=O [Compound 1.077] | 5 (5=80-100%) | 5 (5=80-100%) | 5 (5=80-100%) | 5 (5=80-100%) | 5 (5=80-100%) | 5 (5=80-100%)
12 | Cn1nc(C2CC2)c(O)c(-c2c(F)ccc(Cl)c2OCc2ccccc2)c1=O [Compound 1.012] | 5 (5=80-100%) | 5 (5=80-100%) | 5 (5=80-100%) | 5 (5=80-100%) | 5 (5=80-100%) | 5 (5=80-100%)
13 | Cn1nc(N)c(O)c(-c2c(Cl)ccc(Cl)c2OCc2ccccc2)c1=O [Compound 1.081] | 4 (4=60-79%) | 4 (4=60-79%) | 5 (5=80-100%) | 2 (2=20-39%) | 2 (2=20-39%) | 3 (3=40-59%)
14 | Cn1nc(C2CC2)c(O)c(-c2c(C(F)(F)F)ccc(Cl)c2OCc2ccccc2)c1=O [Compound 1.070] | 5 (5=80-100%) | 5 (5=80-100%) | 5 (5=80-100%) | 5 (5=80-100%) | 5 (5=80-100%) | 5 (5=80-100%)
15 | CCn1nc(C)c(O)c(-c2c(F)ccc(Cl)c2OCc2ccccc2)c1=O [Compound 1.037] | 4 (4=60-79%) | 5 (5=80-100%) | 5 (5=80-100%) | 5 (5=80-100%) | 5 (5=80-100%) | 5 (5=80-100%)
16 | Cn1nc(C2CC2)c(O)c(-c2c(Cl)ccc(Cl)c2OCc2ccccc2)c1=O [Compound 1.009] | 5 (5=80-100%) | 5 (5=80-100%) | 5 (5=80-100%) | 5 (5=80-100%) | 5 (5=80-100%) | 5 (5=80-100%)
17 | Cc1nn(C)c(=O)c(-c2c(C(F)(F)F)ccc(Cl)c2OCc2ccccc2)c1O [Compound 1.073] | 5 (5=80-100%) | 5 (5=80-100%) | 5 (5=80-100%) | 5 (5=80-100%) | 3 (3=40-59%) | 3 (3=40-59%)
18 | Cn1nc([S+](C)[O-])c(O)c(-c2c(F)ccc(Cl)c2OCc2ccccc2)c1=O (stereo not drawn) [Compound 1.080] | 1 (1=0-19%) | 5 (5=80-100%) | 5 (5=80-100%) | 1 (1=0-19%) | 2 (2=20-39%) | 2 (2=20-39%)
19 | Cc1nn(C)c(=O)c(-c2c(Cl)cc(Cl)cc2OCc2ccccc2)c1O [Compound 1.006] | 3 (3=40-59%) | 5 (5=80-100%) | 5 (5=80-100%) | 3 (3=40-59%) | 2 (2=20-39%) | 5 (5=80-100%)
20 | Cc1nn(C)c(=O)c(-c2c(F)ccc(F)c2OCc2ccccc2)c1O [Compound 1.016] | 5 (5=80-100%) | 5 (5=80-100%) | 5 (5=80-100%) | 5 (5=80-100%) | 4 (4=60-79%) | 5 (5=80-100%)

— US9944608B2, “Herbicidal pyridazinone derivatives” (Syngenta Participations AG, priority 2014, dated 2018)
